These are literature values, as cited in US20120046321A1, “METHODS OF TREATING ATRIAL FIBRILLATION WITH P38 INHIBITOR COMPOUNDS” (INTERMUNE, INC., priority 2005, published 2012).

The test system of the data set is canine model, VTP-induced CHF. The conditions noted are these: Li et al., Circulation 2001; cited from earlier work.

On to `CCOC(=O)[C@H](CCc1ccccc1)N[C@@H](C)C(=O)N1CCC[C@H]1C(=O)O` [enalapril], for which the “Ang II concentration” value is reported as “reduction”, the Arrhythmogenic atrial remodeling result was “less” and the ERK activation entry is recorded as “reduction”.
